# According to patent US11873291B2, “Quinoline cGAS antagonist compounds” (ImmuneSensor Therapeutics, Inc., priority 2020, dated 2024):
# Target: T1, recombinant human cGAS (aa147-522) (Homo sapiens, UniProt Q8N884)
# T1 construct: recombinant human cGAS (aa147-522); His6-SUMO (cleaved yes); made in house; host or cells: E. coli BL21/pLys
# Assay: In vitro inhibition assay of cGAS activity (ATP consumption, KinaseGlo Max)
# Type: biochemical
# Conditions: Table 2, read-out: cGAS Inhibition Results IC50
# How it was run: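 De-tagged recombinant human cGAS (aa147-522, 1.5 μg/mL) was incubated 20 min at 37 °C with herring testis DNA, 6.6 μM ATP and 0.1 mM GTP in Tris pH 7.5/MgCl2 buffer plus serial compound dilutions. Remaining ATP was read by KinaseGlo Max luminescence, and IC50 was fitted from % ATP consumption versus log concentration.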
# T1 sequence (Q8N884 147-522): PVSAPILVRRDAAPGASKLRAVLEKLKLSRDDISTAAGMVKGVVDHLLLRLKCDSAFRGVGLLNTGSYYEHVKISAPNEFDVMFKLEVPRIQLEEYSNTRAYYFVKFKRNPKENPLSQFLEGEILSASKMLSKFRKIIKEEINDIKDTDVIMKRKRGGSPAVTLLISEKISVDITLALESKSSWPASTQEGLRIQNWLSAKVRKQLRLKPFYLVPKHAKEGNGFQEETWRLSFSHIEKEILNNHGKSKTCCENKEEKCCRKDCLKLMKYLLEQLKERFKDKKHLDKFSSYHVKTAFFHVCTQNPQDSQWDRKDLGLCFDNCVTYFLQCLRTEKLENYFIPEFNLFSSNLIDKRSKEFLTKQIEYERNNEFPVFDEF
row,SMILES,IC50
1,NC(=O)C1CN(c2cc(-c3cn[nH]c3)c3ccc(Cl)c(Cl)c3n2)CCO1 (centres unmarked) [I-371],< 2 µM
2,OC[C@@H]1CN(c2cc(-c3cn[nH]c3)c3ccc(Cl)c(Cl)c3n2)CCO1 [I-372],< 2 µM
3,NS(=O)(=O)C1CCCN(c2cc(-c3cn[nH]c3)c3ccc(Cl)c(Cl)c3n2)C1 (centres unmarked) [I-373],< 2 µM
4,OCCC1CCCN(c2cc(-c3cn[nH]c3)c3ccc(Cl)c(Cl)c3n2)C1 (centres unmarked) [I-375],2 to 30 µM
5,COc1ccc2c(-c3cn[nH]c3)cc(NCCO)nc2c1 [I-377],> 30 µM
6,O=C(O)[C@H]1CCCN1C(=O)C[C@@H]1CCCN1c1cc(-n2ccnc2)c2ccc(Cl)c(Cl)c2n1 [I-386],< 2 µM
7,CC(C)(NC(=O)C[C@@H]1CCCN1c1cc(-n2ccnc2)c2ccc(Cl)c(Cl)c2n1)C(=O)O [I-387],< 2 µM
8,CN(CCC(=O)N1CCC[C@H]1C(=O)O)c1cc(-c2cn[nH]c2)c2ccc(Cl)c(Cl)c2n1 [I-389],< 2 µM
9,O=c1[nH]c(=O)c2ccc(S(=O)(=O)NC[C@@H]3CCCN3c3cc(-n4ccnc4)c4ccc(Cl)c(Cl)c4n3)cc2[nH]1 [I-392],2 to 30 µM
10,O=C1COc2ccc(S(=O)(=O)NC[C@@H]3CCCN3c3cc(-n4ccnc4)c4ccc(Cl)c(Cl)c4n3)cc2N1 [I-393],> 30 µM
11,N#CCCO[PH](=O)OCC1CCCN(c2cc(-c3cn[nH]c3)c3ccc(Cl)c(Cl)c3n2)C1 (centres unmarked) [I-396],< 2 µM
12,"O=P(O)(O)CCCNc1cc(-c2cn[nH]c2)c2ccc(Cl)c(Cl)c2n1 [I-397, (3-((7,8-dichloro-4-(1H-pyrazol-4-yl)quinolin-2-yl)amino)propyl)phosphonic acid]",< 2 µM
13,"CC(C)(C)OC(=O)NS(=O)(=O)N1CCOC(CNc2cc(-n3ccnc3)c3ccc(Cl)c(Cl)c3n2)C1 (centres unmarked) [I-398, tert-butyl ((2-(((7,8-dichloro-4-(1H-imidazol-1-yl)quinolin-2-yl)amino)methyl)morpholino)sulfonyl)carbamate]",2 to 30 µM
14,CC(C)(C)OC(=O)N1CCOC(CNc2cc(-c3cn[nH]c3)c3ccc(Cl)c(Cl)c3n2)C1 (centres unmarked) [I-399],2 to 30 µM
15,CC(=O)OCC(=O)N1CCOC(CNc2cc(-c3cn[nH]c3)c3ccc(Cl)c(Cl)c3n2)C1 (centres unmarked) [I-400],2 to 30 µM
16,COc1c(Cl)ccc2c(NCCO)cc(-c3cn[nH]c3)nc12 [I-401],> 30 µM
17,C[C@@H](Nc1cc(-c2cn[nH]c2)c2ccc(Cl)c(Cl)c2n1)C(=O)OC(C)(C)C [I-402],2 to 30 µM

row,SMILES,IC50
1,COc1c(Cl)ccc2c(-c3cn[nH]c3)cc(NCCO)nc12 [I-403],> 30 µM
2,"Clc1ccc2c(Cl)cc(-c3cn[nH]c3)nc2c1Cl [I-404, 4,7,8-trichloro-2-(1H-pyrazol-4-yl)quinoline]",> 30 µM
3,"Cc1cc(-c2cn[nH]c2)c2ccc(Cl)c(Cl)c2n1 [I-406, 7,8-dichloro-2-methyl-4-(1H-pyrazol-4-yl)quinoline]",2 to 30 µM
4,Cc1cc(-c2ccn[nH]2)c2ccc(Cl)c(Cl)c2n1 [I-407],> 30 µM
5,"O=C(O)/C=C/c1cc(-c2cn[nH]c2)c2ccc(Cl)c(Cl)c2n1 [I-423, 3-(7,8-dichloro-4-(1H-pyrazol-4-yl)quinolin-2-yl)acrylic acid]",< 2 µM
6,Cn1cc(-c2cc(NCC(=O)O)c3ccc(Cl)c(Cl)c3n2)cn1 [I-425],> 30 µM
7,O=C(O)CNc1cc(-c2ccn[nH]2)nc2c(Cl)c(Cl)ccc12 [I-426],> 30 µM
8,O=C(O)[C@@H]1C[C@@H](F)CN1c1cc(-c2cn[nH]c2)c2ccc(Cl)c(Cl)c2n1 [I-430],< 2 µM
9,O=C(O)[C@@H]1C[C@H](O)CN1c1cc(-c2cn[nH]c2)c2ccc(Cl)c(Cl)c2n1 [I-431],< 2 µM
10,COC(=O)[C@@H]1C[C@H](O)CN1c1cc(-c2cn[nH]c2)c2ccc(Cl)c(Cl)c2n1 [I-432],2 to 30 µM
11,O=C(O)[C@@H]1C[C@@H](O)CN1c1cc(-c2cn[nH]c2)c2ccc(Cl)c(Cl)c2n1 [I-433],< 2 µM
12,COC(=O)[C@@H]1C[C@@H](O)CN1c1cc(-c2cn[nH]c2)c2ccc(Cl)c(Cl)c2n1 [I-434],2 to 30 µM
13,CC(C)(C)O[C@@H]1C[C@@H](C(=O)O)N(c2cc(-c3cn[nH]c3)c3ccc(Cl)c(Cl)c3n2)C1 [I-437],< 2 µM
14,O=C(O)[C@@H]1C[C@@H](OCc2ccccc2)CN1c1cc(-c2cn[nH]c2)c2ccc(Cl)c(Cl)c2n1 [I-438],2 to 30 µM
15,O=C(O)[C@@H]1C[C@@H](C2CCCCC2)CN1c1cc(-c2cn[nH]c2)c2ccc(Cl)c(Cl)c2n1 [I-439],2 to 30 µM
16,O=C(O)C[C@@H]1CCCN1c1cc(-c2cn[nH]c2)c2ccc(Cl)c(Cl)c2n1 [I-444],< 2 µM
17,O=C(C[C@@H]1CCCN1c1cc(-c2cn[nH]c2)c2ccc(Cl)c(Cl)c2n1)N1CCC[C@H]1CO [I-454],< 2 µM

# Now from value to compound:
row,IC50,SMILES
1,< 2 µM,O=C(O)[C@H]1CCCN1c1cc(-n2ccnc2)c2ccc(Cl)c(Cl)c2n1 [I-374]
2,> 30 µM,O=C1CC[C@@H](CO)N1c1cc(-n2ccnc2)c2ccc(Cl)c(Cl)c2n1 [I-376]
3,< 2 µM,Clc1ccc2c(-n3ccnc3)cc(-c3cn[nH]c3)nc2c1Cl [I-378]
4,2 to 30 µM,"O=C(O)COc1c(Br)ccc2c(-n3ccnc3)cc(-c3ccccc3)nc12 [I-379, 2-((7-bromo-4-(1H-imidazol-1-yl)-2-phenylquinolin-8-yl)oxy)acetic acid]"
5,2 to 30 µM,"Brc1ccc2c(-n3ccnc3)cc(-c3cccs3)nc2c1 [I-380, 7-bromo-4-(1H-imidazol-1-yl)-2-(thiophen-2-yl)quinoline]"
6,> 30 µM,COc1ccccc1-c1cc(-n2ccnc2)c2ccc(Br)cc2n1 [I-381]
7,2 to 30 µM,COc1cccc(-c2cc(-n3ccnc3)c3ccc(Br)cc3n2)c1 [I-382]
8,> 30 µM,Brc1ccc2c(-n3ccnc3)cc(-c3ccncc3)nc2c1 [I-383]
9,2 to 30 µM,Brc1ccc2c(-n3ccnc3)cc(-c3cccnc3)nc2c1 [I-384]
10,2 to 30 µM,Cc1ccc(-c2cc(-n3ccnc3)c3ccc(Br)cc3n2)cc1 [I-385]
11,2 to 30 µM,O=C(C[C@@H]1CCCN1c1cc(-n2ccnc2)c2ccc(Cl)c(Cl)c2n1)N[C@@H](C(=O)O)c1ccccc1 [I-388]
12,2 to 30 µM,COC(=O)CCS(=O)(=O)NC[C@@H]1CCCN1c1cc(-n2ccnc2)c2ccc(Cl)c(Cl)c2n1 [I-390]
13,< 2 µM,O=C(O)c1ccccc1S(=O)(=O)NC[C@@H]1CCCN1c1cc(-n2ccnc2)c2ccc(Cl)c(Cl)c2n1 [I-391]
14,> 30 µM,CN(CCNS(=O)(=O)c1ccc(C(F)(F)F)cc1)c1cc(-n2ccnc2)c2ccc(Cl)cc2n1 [I-394]
15,2 to 30 µM,"CC(=O)OCC(=O)NC1CCCN(c2cc(-n3ccnc3)c3ccc(Cl)cc3n2)C1 (centres unmarked) [I-395, 2-((1-(7-chloro-4-(1H-imidazol-1-yl)quinolin-2-yl)piperidin-3-yl)amino)-2-oxoethyl acetate]"
16,2 to 30 µM,"Cc1cc(-n2ccnc2)c2ccc(Cl)c(Cl)c2n1 [I-405, 7,8-dichloro-4-(1H-imidazol-1-yl)-2-methylquinoline]"
17,> 30 µM,"Clc1cccc2c(-n3ccnc3)ccnc12 [I-408, 8-chloro-4-(1H-imidazol-1-yl)quinoline]"
18,> 30 µM,Brc1ccc2nccc(-n3ccnc3)c2c1 [I-409]
19,> 30 µM,c1ccc2c(-n3ccnc3)ccnc2c1 [I-410]
20,> 30 µM,Cc1nccn1-c1ccnc2ccccc12 [I-411]
21,2 to 30 µM,Brc1ccc2c(-n3ccnc3)ccnc2c1 [I-412]

row,IC50,SMILES
1,> 30 µM,c1ccc2c(-n3cccn3)ccnc2c1 [I-413]
2,> 30 µM,Brc1ccc2c(-n3cccn3)ccnc2c1 [I-414]
3,> 30 µM,Brc1ccc2nccc(-n3cccn3)c2c1 [I-415]
4,> 30 µM,Fc1ccc2c(-n3ccnc3)ccnc2c1 [I-416]
5,> 30 µM,COc1ccc2c(-n3ccnc3)ccnc2c1 [I-417]
6,> 30 µM,Brc1ccc2c(-n3cncn3)ccnc2c1 [I-418]
7,> 30 µM,Brc1ccc2c(-n3nccn3)ccnc2c1 [I-419]
8,> 30 µM,Brc1ccc2c(-n3ccnn3)ccnc2c1 [I-420]
9,2 to 30 µM,"Cc1c(Cl)ccc2c(-n3ccnc3)ccnc12 [I-421, 7-chloro-4-(1H-imidazol-1-yl)-8-methylquinoline]"
10,> 30 µM,FC(F)(F)c1cc(-n2ccnc2)c2ccc(Cl)cc2n1 [I-422]
11,2 to 30 µM,"Brc1ccc2c(-n3ccnc3)cc(-c3ccccc3)nc2c1 [I-424, 7-bromo-4-(1H-imidazol-1-yl)-2-phenylquinoline]"
12,< 2 µM,COc1ccc(-c2cc(-c3cn[nH]c3)c3ccc(Cl)c(Cl)c3n2)cc1C(=O)O [I-427]
13,2 to 30 µM,C[C@@]1(C(=O)O)CCCN1c1cc(-n2ccnc2)c2ccc(Cl)c(Cl)c2n1 [I-436]
14,2 to 30 µM,O=C(O)C1CCN(c2cc(-n3ccnc3)c3ccc(Cl)cc3n2)C1 (centres unmarked) [I-445]
15,2 to 30 µM,O=C(O)CC1CCN(c2cc(-n3ccnc3)c3ccc(Cl)cc3n2)C1 (centres unmarked) [I-446]
16,> 30 µM,CCOC(=O)C1CCN(c2cc(-n3ccnc3)c3ccc(Cl)cc3n2)C1 (centres unmarked) [I-447]
17,< 2 µM,O=C(NO)[C@@H]1CCCN1c1cc(-n2ccnc2)c2ccc(Cl)c(Cl)c2n1 [I-449]
18,2 to 30 µM,CNC(=O)[C@@H]1CCCN1c1cc(-n2ccnc2)c2ccc(Cl)c(Cl)c2n1 [I-450]
19,2 to 30 µM,CCNC(=O)[C@@H]1CCCN1c1cc(-n2ccnc2)c2ccc(Cl)c(Cl)c2n1 [I-451]
20,2 to 30 µM,O=C(NCCO)[C@@H]1CCCN1c1cc(-n2ccnc2)c2ccc(Cl)c(Cl)c2n1 [I-452]
21,> 30 µM,CN(C)C(=O)[C@@H]1CCCN1c1cc(-n2ccnc2)c2ccc(Cl)c(Cl)c2n1 [I-453]

# Same assay, conditions: Table 3, read-out: cGAS Inhibition Results IC50
row,IC50,SMILES
1,< 2 µM,O=C(O)[C@@H]1C[C@H](O)CN1c1cc(-n2ccnc2)c2ccc(Cl)c(Cl)c2n1 [I-455]
2,> 30 µM,C[C@]1(C(=O)O)CCCN1c1cc(-n2ccnc2)c2ccc(Cl)c(Cl)c2n1 [I-456]
3,2 to 30 µM,O=C(O)C1(c2ccccc2)CCCN1c1cc(-n2ccnc2)c2ccc(Cl)c(Cl)c2n1 (centres unmarked) [I-457]
4,2 to 30 µM,COC(=O)c1cccn1-c1cc(-n2ccnc2)c2ccc(Cl)c(Cl)c2n1 [I-458]
